Experimental data as given in ChEMBL document CHEMBL3792284, “Synthesis of triazoloquinazolinone based compounds as tubulin polymerization inhibitors and vascular disrupting agents” (Eur J Med Chem, 2016).

Tests used:
NCI-H522 = assay: Growth inhibition of human NCI-H522 cells at 10 uM after 48 hrs by sulforhodamine B assay; type: functional; details: NCI-H522, 48 h, read-out: GI
HT-29 = assay: Growth inhibition of human HT-29 cells at 10 uM after 48 hrs by sulforhodamine B assay; type: functional; details: HT-29, 48 h, read-out: GI
[1] = Growth inhibition of human Caki1 cells at 10 uM after 48 hrs by sulforhodamine B assay; type: functional; details: CAKI-1, 48 h, read-out: GI
MDA-MB-468 = assay: Growth inhibition of human MDA-MB-468 cells at 10 uM after 48 hrs by sulforhodamine B assay; type: functional; details: MDA-MB-468, 48 h, read-out: GI
K562 = assay: Growth inhibition of human K562 cells after 48 hrs by sulforhodamine B assay; type: functional; details: K562, 48 h
A549 = assay: Growth inhibition of human A549/ATCC cells after 48 hrs by sulforhodamine B assay; type: functional; details: A549, 48 h
[2] = Growth inhibition of human HCT15 cells after 48 hrs by sulforhodamine B assay; type: functional; details: HCT-15, 48 h
[3] = Growth inhibition of human SF295 cells after 48 hrs by sulforhodamine B assay; type: functional; details: SF-295, 48 h
MCF7 = assay: Growth inhibition of human MCF7 cells after 48 hrs by sulforhodamine B assay; type: functional; details: MCF7, 48 h
MDA-MB-435 = assay: Cytotoxicity against human MDA-MB-435 cells assessed as cell growth at 10 uM after 48 hrs by sulforhodamine B assay; type: functional; details: MDA-MB-435, 48 h, read-out: Activity
[4] = Cytotoxicity against human OVCAR3 cells assessed as cell growth at 10 uM after 48 hrs by sulforhodamine B assay; type: functional; details: OVCAR-3, 48 h, read-out: Activity
HUVEC = assay: Cytotoxicity against HUVEC assessed as inhibition of cell proliferation after 72 hrs by MTS assay; type: cell-based; details: Homo sapiens

## COc1ccc(-c2nnc3n(C)c(=O)c4ccccc4n23)cc1O
NCI-H522
  inhibition of growth at 10 µM: 100%
HT-29
  inhibition of growth at 10 µM: 81%
[1]
  inhibition of growth at 10 µM: 66%
MDA-MB-468
  inhibition of growth at 10 µM: 70%
K562
  GI50: 0.04 µM
A549
  GI50: 1.84 µM
[2]
  GI50: 0.052 µM
[3]
  GI50: 1.99 µM
MCF7
  GI50: 0.048 µM
MDA-MB-435
  growth at 10 µM: 62%
[4]
  growth at 10 µM: 16%
HUVEC
  IC50: 2.48 µM
